Reference: publication PMC3573960 (Molecular Neurodegeneration, 2012)

Columns and labels:
γ-secretase = assay: APP CTF accumulation in H4-APP751 cell lysates (Western blot); assay type: cell-based, human; conditions: H4-APP751 cells, 16 h
Source text: Cells were lysed in situ and the resulting lysate cleared of nuclei by centrifugation, as described elsewhere. Samples were fractionated by SDS-PAGE on a 12% NuPage gel (Invitrogen), transferred to a nitrocellulose membrane, and immunoblotted with an anti-APP-CTF antibody (Sigma-Aldrich).

HEK293 cells = assay: CellTiter-Blue cell viability in HEK293 cells expressing NotchΔE; assay type: cell-based, human; conditions: up to 30 μM
[1] = Measurement of EVP-0015962 in brain (LC-MS/MS); assay type: in vivo, mouse; conditions: for range of brain concentrations: C57BL/6 mice, 3 or 7 days; for concentration at 50 weeks: male, mouse, brain (cerebellum), oral
Experimental: Mice were placed on the food formulations for 3 or 7 days and were euthanized, as described above, approximately 1 h after the onset of the light cycle.
(§1) Male Tg2576 and WT mice were both derived from crosses of male Tg2576 mice and female B6SJLF1 mice (Taconic) and were singly housed upon arrival. […] Some animals were euthanized as described above. For histological studies, a subset of mice were euthanized by CO2 asphyxiation and transcardially perfused with cold 0.9% NaCl. […] The left cerebral hemisphere was cut into 2 pieces, weighed, and frozen.
Cerebellums were homogenized in a Mini-BeadBeater (Biospec Products, Inc., Bartlesville, OK).

Tg2576 mice [2] = assay: Chronic treatment of Tg2576 mice, sequentially extracted brain Aβ by ELISA; assay type: in vivo, mouse; conditions: 50 weeks
Source text: as §1

Tg2576 mice [3] = assay: Amorfix A4 assay of aggregated Aβ in Tg2576 mouse brain; assay type: in vivo; conditions: 50 weeks
Experimental: (§2) Male Tg2576 and WT mice were both derived from crosses of male Tg2576 mice and female B6SJLF1 mice (Taconic) and were singly housed upon arrival. […] Some animals were euthanized as described above. For histological studies, a subset of mice were euthanized by CO2 asphyxiation and transcardially perfused with cold 0.9% NaCl. The right hemispheres were immersion fixed in fresh 4% paraformaldehyde in 0.1 M phosphate buffer, pH 7.4 for 1 h, transferred to a 15% sucrose cryoprotectant for 24 h at room temperature, and on the next day, frozen in isopentane chilled by dry ice for 1 min. The left cerebral hemisphere was cut into 2 pieces, weighed, and frozen.
The A4 assay (Amorfix Life Sciences, Toronto, Canada) was employed to quantify levels of aggregated Aβ in Tg2576 mouse brains. […] Aβ was detected by immunoassay following incubation at 37°C with europium-fluorescent beads coupled to the mouse monoclonal 4G10 antibody (N-terminal Aβ, aa 1–17) and magnetic beads coupled to the antibodies 1F8 (C-terminal Aβ, aa 3–40) and 2H12 (C-terminal Aβ, aa 3–42). […] The intensity of the europium fluorescent signal was measured using time resolved fluorescence on each sample in triplicate and was taken as being directly proportional to the concentration of aggregated Aβ in the sample. […]

Tg2576 mice [4] = assay: Western blot of APP species and total Aβ in Tg2576 mouse brain; assay type: in vivo; conditions: 50 weeks
Experimental: For determination of APP α- and β-CTFs in Tg2576 mouse brain, hemisphere samples were thawed in ice-cold homogenization buffer (150 mg of tissue/mL, 50 mM Tris and 150 mM NaCl, pH 7.4) with protease inhibitor cocktail (Mini Complete™, Roche Applied Science, Penzberg, Germany). Homogenized samples were spun at 435,000 g for 50 min at 4°C. The supernatant was discarded and the pellet resuspended in the same volume of homogenization buffer containing 0.5% Triton®-X 100, 1% deoxycholate, and 3% SDS. The pellets were triturated with a pipette until resuspended and incubated on a rotator for 1 h at 4°C. The samples were then centrifuged at 435,000 g for 50 min at 4°C and the detergent-soluble supernatant was collected. Protein concentration for membrane (detergent soluble) fraction was determined using the BCA method (Pierce, Rockford, IL). Thirty micrograms of total protein were separated on a Tricine 10-20% gel (Invitrogen) and transferred to a nitrocellulose membrane. Blots were probed with an anti-APP-CTF antibody (Sigma-Aldrich) or anti-Aβ antibody (clone 6E10) followed by incubation with IRDye secondary antibodies (Li-Cor Biosciences).
as §2

Tg2576 mice [5] = assay: Contextual fear conditioning assay
Experimental: Animals in the food formulation groups were maintained on the compound formulated diets. The training session on day 1 consisted of the following sequence: 3 min acclimation to the test chamber (Kinder Scientific, Poway, CA), 2 s 1.5 mA foot shock, 2 min wait period, another 2 s 1.5 mA foot shock, followed by a final 1 min wait period. On day 2, testing consisted of returning the animals to the chamber for 5 min and the total time spent freezing was measured by an automated software system (Kinder Scientific). […] Percentage of time spent freezing for each mouse was calculated using the formula: (number of seconds with zero beam breaks/300) X 100.

γ-secretase (NotchΔE) = assay: NICD production (S3 cleavage of NotchΔE) in transfected HEK293 cells; conditions: HEK293 cells expressing NotchΔE, 20 h, up to 30 μM
Experimental: HEK293 cells (700,000 cells per assay condition) were transiently transfected with a NotchΔE, myc-tagged construct to produce a truncated Notch1 substrate, which is constitutively cleaved by γ-secretase (S3 cleavage) [62]. Control transfections were performed with an empty vector. […] The amounts of NICD and total Notch were quantified and NICD was expressed as a percentage of total Notch. The DMSO control condition was set at 100%. Cell viability was determined using the CellTiter-Blue® Cell Viability Assay (Promega).

γ-secretase (EphA4) = assay: EphA4 CTF accumulation in rat primary neocortical cultures (Western blot); conditions: 24 h, up to 10 μM
Experimental: Protein concentration of the lysate was determined by the BCA method, and 30 μg of total protein were loaded on a 10% Bis-Tris gel (Invitrogen). EphA4 CTF was visualized using an anti-EphA4-CTF antibody (Abnova, Walnut, CA) and an IRDye800CW® secondary antibody (Rockland Immunochemicals, Inc., Gilbertsville, PA). Detection was performed using an Odyssey scanner (LiCor Biosciences) and blots quantified using ImageJ software (available at http://rsbweb.nih.gov/ij).

Tg2576 mice [6] = assay: Acute treatment study in Tg2576 mice, brain Aβ by ELISA after TBS extraction; conditions: 4 h
Experimental: Aβ peptide levels were quantified by sandwich ELISA. Plates were coated overnight at 4°C with either human anti-AβTotal (amino acids [aa] 27–37) or rodent anti-Aβ1-x (aa 1–8) rabbit polyclonal antibodies. For detection of Aβ38 and Aβ42, plates were coated with antibodies specific for the carboxyl-terminal neoepitope of each peptide. Antibodies were from Dr. Pankaj Mehta (Institute for Basic Research in Developmental Disabilities, Staten Island, NY) [58].
The 10 and 30 mg/kg doses were a solution and a suspension, respectively. […] After extraction of the brain, olfactory bulbs and hindbrain were removed and the cerebral hemispheres were cut into 4 pieces. […] All tissue samples were weighed, frozen in liquid nitrogen, and stored at −80°C until analysis.
In order to examine both soluble and insoluble pools of Aβ, sequential extraction of Tg2576 mouse brain samples was performed to produce 4 pools of Aβ, essentially as described elsewhere [37]. Briefly, brains were homogenized in 25 mM TBS, pH 7.4 with protease inhibitors (Mini Complete™) to release the soluble Aβ into the resulting supernatants after high speed ultracentrifugation. […] The extracted Aβ from each step was subjected to ELISA for human Aβ42, Aβ38, and AβTotal, as described above.

## O=C(O)[C@H](CC1CCC1)c1cc(Cl)c(OCC(F)(F)F)c(-c2ccc(C(F)(F)F)cc2)c1 [EVP-0015962, (R)-2-(5-chloro-6-(2,2,2-trifluoroethoxy)-4’-(trifluoromethyl)biphenyl-3-yl)-3-cyclobutylpropanoic acid]
γ-secretase; 1 nM to 10 μM
  Full length APP: not altered
γ-secretase; concentrations up to 10 μM
  accumulation of APP α- or β-CTFs: did not cause the accumulation
HEK293 cells
  cell viability: did not affect
[1]; food formulation 20 mg/kg/day
  range of brain concentrations: 1.5 to 3.1 µM
[1]; food formulation 60 mg/kg/day
  range of brain concentrations: 4.9 to 9.7 µM
[1]; Tg2576 mice, 50 weeks vs short-term treatments
  accumulation or cytochrome P450 enzyme induction (from brain concentrations): did not demonstrate accumulation or cytochrome P450 enzyme induction
[1]; Tg2576 mice, 20 mg/kg/day in food
  concentration at 50 weeks: 2.5 ± 0.2 µM
[1]; Tg2576 mice, 60 mg/kg/day in food
  concentration at 50 weeks: 8.3 ± 0.6 µM
[1]; mice
  oral bioavailability: orally bioavailable
Tg2576 mice [2]; 20 mg/kg/day
  Aβ38 in the TBS soluble fraction: did not produce a significant increase
  percent reduction in Aβ42 in the TBS soluble fraction: 53%
  reduction in AβTotal in the formic acid extractable fraction: 49%
  reduction in formic acid extractable Aβ42: 53%
Tg2576 mice [2]; 60 mg/kg/day
  age-related increase in soluble and insoluble Aβ42: prevented the dramatic increase
  increase in Aβ38 in the TBS soluble fraction: 78%
  percent reduction in Aβ42 in the TBS soluble fraction: 89%
  reduction in AβTotal in the formic acid extractable fraction: 64%
  reduction in formic acid extractable Aβ42: 86%
Tg2576 mice [2]; 20 or 60 mg/kg/day
  Aβ38 in the formic acid extractable fraction: not significantly changed
  AβTotal in the TBS soluble fraction: unchanged
Tg2576 mice [2]; lower dose (20 mg/kg/day)
  age-related increase in Aβ42: partially effective
Tg2576 mice [3]; 20 mg/kg/day
  reduction in aggregated Aβ: 19%
Tg2576 mice [3]; 60 mg/kg/day
  reduction in aggregated Aβ compared to the control diet group: 73%
Tg2576 mice [4]; 20 mg/kg/day
  reduction in total Aβ by Western blot vs control diet: 42%
Tg2576 mice [4]; 60 mg/kg/day
  reduction in total Aβ by Western blot vs control diet: 81%
Tg2576 mice [4]; 20 or 60 mg/kg/day
  levels of full length APP, β-CTF, and α-CTF in brain: no increases
Tg2576 mice [5]; 20 or 60 mg/kg/day in food, 11 weeks (p < 0.01)
  genotype-associated deficit in percent freezing (CFC): reversed
Tg2576 mice [5]; single dose 30 mg/kg p.o., 3 h prior to training
  genotype-associated deficit in percent freezing (CFC): did not reverse this deficit
γ-secretase (NotchΔE)
  levels of NICD produced: did not affect
γ-secretase (EphA4)
  EphA4 CTF accumulation: did not result in EphA4 CTF accumulation
Tg2576 mice [6]; 10 mg/kg p.o., TBS extraction (NS)
  decrease in brain Aβ42 compared to vehicle-treated mice: 22%
Tg2576 mice [6]; 30 mg/kg p.o., TBS extraction (p < 0.05)
  decrease in brain Aβ42 compared to vehicle-treated mice: 39%
Tg2576 mice [6]; 10 or 30 mg/kg p.o.
  brain AβTotal: remained unchanged
